Reference: US20230277527A1, “ROR-GAMMA MODULATORS” (Escalier Biosciences B.V., priority 2016, published 2023)

Target: RORγt (Homo sapiens (Human), UniProt P51449)
Experiment: RORγt Gal fusion assay (Gal4 ligand binding reporter assay)
Type: cell-based
Settings: RORγt inverse agonists
Method: Human RORγ ligand binding assay was performed in 96-well format. The N-terminal DNA binding domains (DBD) of the native RORγ and RORγt receptors have been substituted with that of the yeast GAL4-DBD and RORγ is expressed constitutively in the cell line. Both agonist and inverse agonist activity can be detected. 10 mM compound stocks were diluted serially 1:3 with DMSO and further diluted with provided media to generate 10 titration points from 60 μM to 3 nM. These treatment conditions were added to the plates as 2× media in 100 μL volume. Each plate includes a positive control with 10 titration points as well as 6 negative control wells with vehicle only. Reporter cells were rapidly thawed and added to the plates in 100 μL volume. The plates were incubated for 24 hrs in a 37° C. humidified 5% CO2 incubator. Media was removed before the addition of room temperature Detection Substrate. After 5 minute incubation, the luminescence was quantified on a luminescence plate reader.

Chain of RORγt (P51449 269-508): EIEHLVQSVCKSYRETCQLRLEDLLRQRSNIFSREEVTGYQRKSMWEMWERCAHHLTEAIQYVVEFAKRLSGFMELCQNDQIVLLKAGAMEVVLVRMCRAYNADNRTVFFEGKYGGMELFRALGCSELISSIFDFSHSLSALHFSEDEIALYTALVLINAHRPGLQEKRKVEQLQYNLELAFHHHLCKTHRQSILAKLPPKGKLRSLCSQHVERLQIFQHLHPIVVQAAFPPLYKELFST

Compound | IC50 [nM]
O=C(O)C1CN(Cc2ccc(-c3ccc(C(O)(C(F)(F)F)C(F)(F)F)cc3)cc2)CCN1Cc1ccncc1 (stereo not shown) [Compound 20, 4-((4′-(1,1,1,3,3,3-hexafluoro-2-hydroxypropan-2-yl)-[1,1′-biphenyl]-4-yl)methyl)-1-(pyridin-4-ylmethyl)piperazine-2-carboxylic acid] | > 10000
CC(C)NC(=O)C1CN(Cc2ccncc2)CCN1Cc1ccc(-c2ccc(C(O)(C(F)(F)F)C(F)(F)F)cc2)cc1 (stereo not shown) [Compound 24, 1-((4′-(1,1,1,3,3,3-hexafluoro-2-hydroxypropan-2-yl)-[1,1′-biphenyl]-4-yl)methyl)-N-isopropyl-4-(pyridin-4-ylmethyl)piperazine-2-carboxamide] | > 10000
CC(C)OC(=O)CC1CN(Cc2ccc(-c3ccc(C(O)(C(F)(F)F)C(F)(F)F)cc3)cc2)CCN1Cc1ccncc1 (stereo not shown) [Compound 30, isopropyl 2-(4-((4′-(1,1,1,3,3,3-hexafluoro-2-hydroxypropan-2-yl)-[1,1′-biphenyl]-4-yl)methyl)-1-(pyridin-4-ylmethyl)piperazin-2-yl)acetate] | < 1000
CCOCCOC(=O)C[C@H]1CN(Cc2ccc(-c3ccc(C(O)(C(F)(F)F)C(F)(F)F)cc3)cc2)CCN1Cc1ccncc1 [Compound 51, 2-ethoxyethyl (S)-2-(4-((4′-(1,1,1,3,3,3-hexafluoro-2-hydroxypropan-2-yl)-[1,1′-biphenyl]-4-yl)methyl)-1-(pyridin-4-ylmethyl)piperazin-2-yl)acetate] | < 1000
CCOCCOC(=O)CC1CN(Cc2ccc(-c3ccc(C(O)(C(F)(F)F)C(F)(F)F)cc3)cc2)CCN1Cc1ccncc1 (stereo not shown) [Compound 32, 2-ethoxyethyl 2-(4-((4′-(1,1,1,3,3,3-hexafluoro-2-hydroxypropan-2-yl)-[1,1′-biphenyl]-4-yl)methyl)-1-(pyridin-4-ylmethyl)piperazin-2-yl)acetate] | < 1000
CCOC(=O)CC1CN(Cc2ccncc2)CCN1Cc1ccc(-c2ccc(C(O)(C(F)(F)F)C(F)(F)F)cc2)cc1 (stereo not shown) [Compound 10, ethyl 2-(1-((4′-(1,1,1,3,3,3-hexafluoro-2-hydroxypropan-2-yl)-[1,1′-biphenyl]-4-yl)methyl)-4-(pyridin-4-ylmethyl)piperazin-2-yl)acetate] | < 1000
CCOC(=O)CC1CN(Cc2ccc(-c3ccc(C(O)(C(F)(F)F)C(F)(F)F)cc3)cc2)CCN1Cc1ccncc1 (stereo not shown) [Compound 18, ethyl 2-(4-((4′-(1,1,1,3,3,3-hexafluoro-2-hydroxypropan-2-yl)-[1,1′-biphenyl]-4-yl)methyl)-1-(pyridin-4-ylmethyl)piperazin-2-yl)acetate] | < 1000
O=C(O)CC1CN(Cc2ccc(-c3ccc(C(O)(C(F)(F)F)C(F)(F)F)cc3)cc2)CCN1Cc1ccncc1 (stereo not shown) [Compound 21, 2-(4-((4′-(1,1,1,3,3,3-hexafluoro-2-hydroxypropan-2-yl)-[1,1′-biphenyl]-4-yl)methyl)-1-(pyridin-4-ylmethyl)piperazin-2-yl)acetic acid] | > 10000
CCOC(=O)C1CN(Cc2ccncc2)CCN1Cc1ccc(-c2ccc(C(O)(C(F)(F)F)C(F)(F)F)cc2)cc1 (stereo not shown) [Compound 9, ethyl 1-((4′-(1,1,1,3,3,3-hexafluoro-2-hydroxypropan-2-yl)-[1,1′-biphenyl]-4-yl)methyl)-4-(pyridin-4-ylmethyl)piperazine-2-carboxylate] | < 1000
CCOC(=O)C[C@@H]1CN(Cc2ccc(-c3ccc(C(O)(C(F)(F)F)C(F)(F)F)cc3)cc2)CCN1Cc1ccncc1 [Compound 49, ethyl (R)-2-(4-((4′-(1,1,1,3,3,3-hexafluoro-2-hydroxypropan-2-yl)-[1,1′-biphenyl]-4-yl)methyl)-1-(pyridin-4-ylmethyl)piperazin-2-yl)acetate] | < 1000
CCOC(=O)C1CN(Cc2ccc(-c3ccc(C(O)(C(F)(F)F)C(F)(F)F)cc3)cc2)CCN1Cc1ccncc1 (stereo not shown) [Compound 17, ethyl 4-((4′-(1,1,1,3,3,3-hexafluoro-2-hydroxypropan-2-yl)-[1,1′-biphenyl]-4-yl)methyl)-1-(pyridin-4-ylmethyl)piperazine-2-carboxylate] | < 1000
O=C(CC1CN(Cc2ccc(-c3ccc(C(O)(C(F)(F)F)C(F)(F)F)cc3)cc2)CCN1Cc1ccncc1)OCCO (stereo not shown) [Compound 31, 2-hydroxyethyl 2-(4-((4′-(1,1,1,3,3,3-hexafluoro-2-hydroxypropan-2-yl)-[1,1′-biphenyl]-4-yl)methyl)-1-(pyridin-4-ylmethyl)piperazin-2-yl)acetate] | < 1000
CCOC(=O)CC1CN(Cc2ccc(-c3ccc(C(O)(C(F)(F)F)C(F)(F)F)cc3)c(C)c2)CCN1Cc1ccncc1 (stereo not shown) [Compound 35, ethyl 2-(4-((4′-(1,1,1,3,3,3-hexafluoro-2-hydroxypropan-2-yl)-2-methyl-[1,1′-biphenyl]-4-yl)methyl)-1-(pyridin-4-ylmethyl)piperazin-2-yl)acetate] | < 1000

System: IMQ-induced psoriasis
Experiment: not given
Settings: topical pre-treatment daily for 5 days, 4 hours before IMQ

Compound | ear and back skin thickness | histopathology scoring | total psoriasis score
C[C@H]1C[C@H]2[C@@H]3CCC4=CC(=O)C=C[C@]4(C)[C@@]3(F)[C@@H](O)C[C@]2(C)[C@@]1(O)C(=O)CCl [clobetasol] | significantly decreased | significantly decreased | significantly decreased
